Values joined by “and” are separate entries in the source; they are usually repeats but may differ in a detail not shown here. Equal entries are not always repeated.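 Step 1: Grow cells in 96-well plates. Step 2: Expose to compound for 48 hours at 5 concentrations. Step 3: Interpolate endpoints linearly; if unreached, use highest concentration. GI50 marks 50% less growth. Definition used: TGI = concentration required for complete inhibition of growth.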
Experiments:
Experiment in all cases: NCI tumour cell line growth inhibition, 48 h
[1] = system: SN12C renal
[2] = system: SNB-19 CNS
[3] = system: SR leukemia
[4] = system: NCI-H23 lung
[5] = system: SK-MEL-5 melanoma
[6] = system: U251 CNS
[7] = system: MOLT-4 leukemia
[8] = system: CAKI-1 renal
[9] = system: IGROV1 ovarian
[10] = system: NCI-H460 lung

Structure (SMILES)	TGI [1]	TGI [2]	TGI [3]	TGI [4]	TGI [5]	TGI [6]	TGI [7]	TGI [8]	TGI [9]	TGI [10]	GI50 [1]	GI50 [2]	GI50 [9]	GI50 [4]	GI50 [5]	GI50 [10]	GI50 [6]	GI50 [7]	GI50 [8]	GI50 [3]
COc1ccc(C(=O)NCCN(C)C)c2nc3ccccc3nc12	80.1 µM	> 53 µM	23.3 µM	17.9 µM	> 36.6 µM	40.9 µM	7.3 µM	> 36.2 µM	–	–	–	–	–	–	–	–	–	–	–	–
O=c1c2cc(Br)ccc2nc(CCl)n1-c1ccc(O)c([N+](=O)[O-])c1	36 µM	–	–	35.8 µM	29.8 µM	> 100 µM	53.5 µM	49.3 µM	51.6 µM	> 100 µM	–	–	–	–	–	–	–	–	–	–
O=C1CCCCN1CCCCC#Cc1cccc(C#Cc2cccnc2)c1	28.5 µM	27.2 µM	–	37.7 µM	36.3 µM	22 µM	> 100 µM	> 100 µM	43.1 µM	> 100 µM	14.1 µM	13 µM	14.7 µM	17.1 µM	14.3 µM	19.6 µM	7.05 µM	73.1 µM	35.5 µM	–
Cc1nc(C(N)=S)sc1C(=O)/C=C/c1c(O)ccc2ccccc12	> 100 µM	> 100 µM	–	> 100 µM	> 100 µM	> 100 µM	> 69 µM	> 100 µM	> 100 µM	> 100 µM	–	–	–	–	–	–	–	–	–	–
CCOC(=O)C1SC(=Nc2ccc(Cl)cc2)N=C1C (centres undefined)	31.3 µM	35 µM	[…]	34.9 µM	–	35.2 µM	48.8 µM	–	40 µM	45.1 µM	–	–	–	–	–	–	–	–	–	–
C[N+](C)(C)CC1CCCCC1O (centres undefined)	> 100 µM	–	> 100 µM	> 100 µM	> 100 µM	> 100 µM	> 100 µM	> 100 µM	> 100 µM	> 100 µM	–	–	–	–	–	–	–	–	–	–
CCOC(=O)NC(=O)c1cn(CCN2CCN(C(=O)CCCCCCCCCCC(=O)N3CCN(CCn4cc(C(=O)NC(=O)OCC)c(=O)[nH]c4=O)CC3)CC2)c(=O)[nH]c1=O	> 100 µM	> 100 µM	> 100 µM	> 100 µM	> 100 µM	> 100 µM	> 100 µM	> 100 µM	> 100 µM	–	–	–	–	–	–	–	–	–	–	–
CSc1nnc(COc2ccc(Cl)cc2)o1	> 100 µM	> 100 µM	–	> 100 µM	> 100 µM	> 100 µM	–	> 100 µM	> 100 µM	> 100 µM	–	–	–	–	–	–	–	–	–	–
COc1ccc(/C(=N\NC(=S)NN)C(c2ccc(OC)cc2)C2C(=O)Oc3ccccc32)cc1 (centres undefined)	> 100 µM	–	> 100 µM	> 100 µM	> 100 µM	–	> 100 µM	–	> 100 µM	> 100 µM	> 100 µM	–	> 100 µM	> 100 µM	> 100 µM	> 100 µM	–	> 100 µM	–	–
Nc1ncnc2c1ncn2CC(O)CO (centres undefined)	> 100 µM	> 100 µM	–	> 100 µM	> 100 µM	–	> 100 µM	> 100 µM	> 100 µM	> 100 µM	–	–	–	–	–	–	–	–	–	–
O=C(N/N=C/c1ccccc1O)c1ccccc1	> 100 µM	> 100 µM	28.4 µM	> 100 µM	> 100 µM	> 100 µM	> 100 µM	–	> 100 µM	> 100 µM	2.45 µM	6.22 µM	1.84 µM	4.92 µM	2.97 µM	1.18 µM	1.94 µM	0.503 µM	–	1.79 µM
O=c1oc2ccccc2[n+]([O-])c1-c1ccccc1	> 100 µM	> 100 µM	–	> 100 µM	> 100 µM	> 100 µM	> 100 µM	> 100 µM	> 100 µM	> 100 µM	–	–	–	–	–	–	–	–	–	–
COc1cnc2c(c1)C(=O)c1c-2n(CCCN2CCN(C)CC2)c(=O)c2cc([N+](=O)[O-])ccc12	–	5.01 µM	0.365 µM	2.6 µM	2.64 µM	0.386 µM	–	2.8 µM	2.26 µM	0.365 µM	–	0.399 µM	0.351 µM	0.362 µM	1.31 µM	0.135 µM	0.165 µM	–	1.34 µM	0.0249 µM
O=c1cc(/C=C/c2ccccc2)[nH]c2cc3c(cc12)OCO3	23.9 µM	13.4 µM	–	13.3 µM	12.3 µM	7.18 µM	13.7 µM	–	19.8 µM	10.6 µM	–	–	–	–	2.17 µM	–	–	–	–	–
CCCCn1c(-c2ccc(C(=O)O/N=C(\N)c3ccc4c(c3)OCO4)cc2)nc(-c2ccccc2)c1-c1ccccc1	3.7 µM	43.6 µM	–	> 100 µM	4.54 µM	5.24 µM	–	3.37 µM	1.8 µM	5.62 µM	1.8 µM	3.04 µM	0.465 µM	2.23 µM	1.98 µM	2.29 µM	2 µM	–	1.35 µM	–
C=C(C)C1C/C=C(/C)CCCC2(CCC3=C(CC(C(=C)C)C/C=C(/C)CCC3)O2)C(=O)C1 (centres undefined)	> 100 µM	> 100 µM	> 100 µM	> 100 µM	–	> 100 µM	> 100 µM	–	> 100 µM	> 100 µM	–	–	–	–	–	–	–	–	–	–
CCCCN(CCCC)C(=O)/C(CC(=O)c1cccc2ccccc12)=N\NC(=O)c1cc2ccccc2cc1O	52.6 µM	> 100 µM	–	45.6 µM	32 µM	72.3 µM	42.9 µM	–	71.3 µM	44.2 µM	–	–	–	–	–	–	–	–	–	–
C=C1C(=O)O[C@H]2[C@H]1CC/C(C=Nc1c(N)cc(C(F)(F)F)cc1Br)=C\CC[C@@]1(C)O[C@@H]21	3.51 µM	13.2 µM	6.73 µM	4.41 µM	2.64 µM	3.17 µM	> 100 µM	–	3.01 µM	3.81 µM	1.5 µM	3.46 µM	1.42 µM	1.84 µM	1.35 µM	1.78 µM	1.69 µM	0.624 µM	–	1.08 µM
O=C(/C=C/c1ccccc1)CC(=O)CCC(=O)Nc1ccc(Cl)cc1	> 100 µM	> 100 µM	–	> 100 µM	> 100 µM	> 100 µM	> 100 µM	> 100 µM	> 100 µM	> 100 µM	–	–	–	–	–	–	–	–	–	–

Structure (SMILES)	TGI [1]	TGI [2]	TGI [3]	TGI [4]	TGI [5]	TGI [6]	TGI [7]	TGI [8]	TGI [9]	TGI [10]	GI50 [1]	GI50 [2]	GI50 [9]	GI50 [4]	GI50 [5]	GI50 [10]	GI50 [6]	GI50 [7]	GI50 [8]	GI50 [3]
Nc1ccc(/C=C/C(=O)NCc2cc3cc(-c4ccc(C(=O)N5CCC(F)(F)CC5)cc4)cc(-c4ccc(F)cc4)c3o2)cn1	> 100 µM	> 100 µM	> 100 µM	> 100 µM	> 100 µM	> 100 µM	> 100 µM	–	> 100 µM	> 100 µM	0.0589 µM	3.96 µM	> 44.7 µM	> 100 µM	14.2 µM	10.9 µM	1.16 µM	3.46 µM	–	12.9 µM
CC(=O)/C(=C/c1ccccc1F)C(=O)c1ccccc1	> 100 µM	> 100 µM	–	> 100 µM	> 100 µM	> 100 µM	7.14 µM	> 100 µM	> 100 µM	97.8 µM	–	–	–	–	–	–	–	–	–	–
Oc1ccccc1-c1nn(CNc2ccccc2Cl)c(=S)o1	> 100 µM	> 100 µM	89.6 µM	> 100 µM	> 100 µM	> 100 µM	–	> 100 µM	> 100 µM	> 100 µM	78.2 µM	> 100 µM	> 100 µM	> 100 µM	> 100 µM	37.4 µM	31.4 µM	–	> 100 µM	25.2 µM
CC(C)(C)c1cc(C=C(C#N)C#N)cc(C(C)(C)C)c1O	4.6 µM	115 µM	12.6 µM and 11 µM	–	3.07 µM	23.1 µM and 11.5 µM	10.6 µM	–	> 247 µM	21.9 µM	0.513 µM	0.271 µM	0.493 µM	0.194 µM	0.298 µM	0.305 µM	0.359 µM	–	–	0.318 µM
CC(=O)N1CCC2(c3ccccc3N(C(C)=O)C2c2ccc(O)cc2)C1C(=O)O (centres undefined)	> 100 µM	> 100 µM	> 100 µM	> 100 µM	> 100 µM	> 100 µM	> 100 µM	–	–	–	–	–	–	–	–	–	–	–	–	–
C[C@H]1CCCC(O)C(O)[C@@H]2C[C@H](O[Si](C)(C)C(C)(C)C)C[C@H]2[C@H](O[Si](C)(C)C(C)(C)C)C(O)C(O)C(=O)O1 (some centres undefined)	> 100 µM	46.7 µM	–	–	> 100 µM	30.9 µM	> 100 µM	89.7 µM	43 µM	23.9 µM	34.6 µM	15.9 µM	16.2 µM	–	45.4 µM	11 µM	12.7 µM	66 µM	23.5 µM	–
Cc1ccc(NC(=O)c2cc(S(=O)(=O)N3C(=O)NC(=O)NS3(=O)=O)c(S)cc2Cl)cc1	> 100 µM	> 100 µM	–	99.6 µM	32 µM	> 100 µM	44 µM	60.9 µM	90.4 µM	> 100 µM	31.2 µM	69.5 µM	26.1 µM	32.3 µM	15.4 µM	29.4 µM	27.1 µM	15.3 µM	30.6 µM	–
Cc1c(C(=O)O)oc2ccc([N+](=O)[O-])cc12	> 100 µM	> 100 µM	–	> 100 µM	> 100 µM	> 100 µM	–	> 100 µM	> 100 µM	> 100 µM	–	–	–	–	–	–	–	–	–	–
N/N=C1\C(=O)N(CCc2ccccc2)C(=O)C1C(=O)NCCc1ccccc1 (centres undefined)	> 100 µM	> 100 µM	> 100 µM	> 100 µM	–	> 100 µM	> 100 µM	> 100 µM	> 100 µM	–	–	–	–	–	–	–	–	–	–	–
Cc1ccccc1NC(=O)C1C(=O)N(c2ccccc2C)C(=O)/C1=N\NC(N)=S (centres undefined)	> 100 µM	> 100 µM	> 100 µM	> 100 µM	–	> 100 µM	> 100 µM	> 100 µM	> 100 µM	–	–	–	–	–	–	–	–	–	–	–
CCCCCCCCCCCCCCCC[N+]1(C)CCOCC1	8.92 µM	–	4.66 µM	12.2 µM	–	2.34 µM	3.69 µM	22.5 µM	–	4.73 µM	2.6 µM	–	–	2.2 µM	–	1.96 µM	1.06 µM	1.6 µM	5.32 µM	1.28 µM
COc1cc(NCCCCCCCNC(C)C)c2nccc(C)c2c1	25.7 µM	30 µM	–	26.2 µM	24.6 µM	24.2 µM	23 µM	25.6 µM	34.5 µM	27.5 µM	12.2 µM	16 µM	13.3 µM	12.1 µM	11.9 µM	12.2 µM	11 µM	6.95 µM	12.2 µM	–
CCOC(=O)c1cc2c3c(c(O)c(OC)c2s1)N(C(=O)c1cc2c4c(c(O)c(OC)c2s1)N(C(C)=O)CC4)CC3	> 100 µM	> 100 µM	–	> 100 µM	> 100 µM	> 100 µM	–	> 100 µM	> 100 µM	> 100 µM	–	–	–	–	–	–	–	–	–	–
Cc1c2ccccc2cc2ccc3oc([N+](=O)[O-])cc3c12	> 100 µM	> 100 µM	–	–	> 100 µM	> 100 µM	> 100 µM	> 100 µM	> 100 µM	> 100 µM	–	–	–	–	–	–	–	–	–	–
NC(=S)NN/C=C(\C=Nc1ccccc1)[N+](=O)[O-]	> 100 µM	> 100 µM	–	> 100 µM	–	–	–	> 100 µM	> 100 µM	–	–	–	–	–	–	–	–	–	–	–
Cn1c2c(c3ccccc31)CCN(CCN1CCN(c3cccc(Cl)c3)CC1)C2=O	> 100 µM	–	–	> 100 µM	62.6 µM	> 100 µM	> 100 µM	–	> 100 µM	–	–	–	–	–	–	–	–	–	–	–
CC(=O)c1ccc(O)c(CN(C2CCCCC2)C2CCCCC2)c1O	> 100 µM	> 100 µM	–	> 100 µM	> 100 µM	> 100 µM	> 100 µM	> 100 µM	> 100 µM	> 100 µM	–	–	–	–	–	–	–	–	–	–
CC(C)(C)C(=O)[CH-]C(=O)C(C)(C)C.CC(C)(C)C(=O)[CH-]C(=O)C(C)(C)C.CN(C)c1ccc([O-])cc1.CN(C)c1ccc([O-])cc1.[Ti+4]	> 100 µM	–	–	> 100 µM	> 100 µM	> 100 µM	> 100 µM	> 100 µM	> 100 µM	> 100 µM	> 100 µM	–	> 100 µM	> 100 µM	> 100 µM	> 100 µM	43.1 µM	> 100 µM	> 100 µM	–
